Experimental data as given in patent US8106055B2, “Substituted amide compounds” (Gruenenthal GmbH, priority 2007, dated 2012).

Key:
human μ opiate receptor = molecular target: T1, human μ opiate receptor (Homo sapiens, UniProt P35372); experiment: Affinity for the human μ opiate receptor ([3H]-naloxone displacement, CHO-K1 receptor membrane preparation, SPA); type: binding; conditions: test concentration of 1 μM
T1 construct: purchased PerkinElmer Life Sciences, Zaventem, Belgium RB-HOM; host or cells: CHO-K1 cells (membrane preparation)
How it was run: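 Scintillation proximity binding on human μ receptor membranes from CHO-K1 cells used 1 nmol/l [3H]-naloxone over 90 min at room temperature in 50 mmol/l Tris-HCl, 0.06% BSA. Percent inhibition was recorded at 1 μM.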

[1] = molecular target: T2, bradykinin 1 receptor (B1R) of the rat (Rattus norvegicus, UniProt P97583); experiment: Functional investigation on the rat bradykinin 1 receptor (B1R), Ca2+ FLIPR assay in CHO K1 rB1R cells; type: cell-based; conditions: B1R antagonism rat; test substance 10 μM; Ca2+ FLIPR, CHO K1 rB1R cells
T2 construct: expressed in transfected cells; host or cells: CHO K1 cells
T2 sequence (P97583 1-337): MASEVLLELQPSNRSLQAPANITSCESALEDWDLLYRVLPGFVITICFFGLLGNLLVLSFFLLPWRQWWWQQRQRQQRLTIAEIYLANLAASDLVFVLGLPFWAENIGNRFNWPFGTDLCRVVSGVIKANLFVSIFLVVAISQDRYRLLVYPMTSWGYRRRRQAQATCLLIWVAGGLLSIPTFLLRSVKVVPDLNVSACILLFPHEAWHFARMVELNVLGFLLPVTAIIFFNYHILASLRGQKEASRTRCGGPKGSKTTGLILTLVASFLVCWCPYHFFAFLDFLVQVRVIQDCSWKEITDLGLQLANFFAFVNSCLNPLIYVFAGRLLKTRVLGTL
How it was run: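 Cells were dye-loaded with Fluo-4 plus probenecid, then test substances added and Ca2+ influx compared with agonist control for % activation. After 10-20 min, EC80 agonist (Lys-Des-Arg9-bradykinin human; Des-Arg9-bradykinin rat) was applied; suppression gave % inhibition and IC50 values.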

T1 sequence (P35372 whole entry): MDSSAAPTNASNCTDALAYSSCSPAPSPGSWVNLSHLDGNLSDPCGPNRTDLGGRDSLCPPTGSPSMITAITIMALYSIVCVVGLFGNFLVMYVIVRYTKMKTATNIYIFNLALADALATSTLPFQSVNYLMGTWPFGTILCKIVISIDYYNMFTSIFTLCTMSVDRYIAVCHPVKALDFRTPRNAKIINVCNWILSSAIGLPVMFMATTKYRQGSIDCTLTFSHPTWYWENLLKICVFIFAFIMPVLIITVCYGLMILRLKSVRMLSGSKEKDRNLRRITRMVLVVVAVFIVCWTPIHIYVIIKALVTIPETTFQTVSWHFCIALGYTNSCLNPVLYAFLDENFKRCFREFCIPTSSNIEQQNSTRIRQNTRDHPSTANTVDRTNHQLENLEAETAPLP

Compound	μ (binding on the μ opioid receptor, % inhibition) (human μ opiate receptor)	B1R Ant. r [10 μM] % Inhibition [1]
CN(C)C(c1ccc(F)cc1)C1CCC(NC(=O)COCCN(C)S(=O)(=O)c2c(Cl)cccc2Cl)CC1 (stereo not drawn) [Example 363]	59%	29%
CN(C)C(c1cccc(F)c1)C1CCC(NC(=O)COCCN2CCN(S(=O)(=O)c3ccccc3)CC2)CC1 (stereo not drawn) [Example 364]	58%	−9%
COc1cc(C)c(S(=O)(=O)N2CCC(OCC(=O)NC3CCC(C(c4ccc(F)cc4)N(C)C)CC3)C2)c(C)c1C (stereo not drawn) [Example 365]	49%	2%
COc1cc(C)c(S(=O)(=O)N2CCN(CCOCC(=O)NCC3CCC(C(c4ccc(F)cc4)N(C)C)CC3)CC2)c(C)c1C (stereo not drawn) [Example 366]	55%	16%
COc1ccc(S(=O)(=O)N2CCCCC2COCC(=O)NCC2CCC(C(c3ccc(Cl)cc3)N(C)C)CC2)cc1OC (stereo not drawn) [Example 367]	60%	2%
CN(C)C(c1ccc(F)cc1)C1CCC(CCNC(=O)COCCN(C)S(=O)(=O)c2cccc(C(F)(F)F)c2)CC1 (stereo not drawn) [Example 368]	61%	17%
CN(C)C(c1ccc(F)cc1)C1CCC(NC(=O)COC2CCN(S(=O)(=O)c3ccc(Cl)cc3)C2)CC1 (stereo not drawn) [Example 370]	59%	3%
Cc1ccc(S(=O)(=O)N2CCC(OCC(=O)NC3CCC(C(c4ccc(F)cc4)N(C)C)CC3)C2)cc1 (stereo not drawn) [Example 371]	57%	5%
COc1cc(C)c(S(=O)(=O)N(CCOCC(=O)NC2CCC(C(c3cccc(F)c3)N(C)C)CC2)Cc2ccccc2)c(C)c1 (stereo not drawn) [Example 372]	59%	22%
COc1ccc(S(=O)(=O)N2Cc3ccccc3CC2COCC(=O)NCC2CCC(C(CCc3ccccc3)N(C)C)CC2)cc1 (stereo not drawn) [Example 373]	62%	12%
COc1ccc(S(=O)(=O)N2Cc3ccccc3CC2COCC(=O)NCCC2CCC(C(c3ccc(Cl)cc3)N(C)C)CC2)cc1 (stereo not drawn) [Example 374]	59%	11%
CN(C)C(c1ccc(Cl)cc1)C1CCC(CCNC(=O)COC2CCN(S(=O)(=O)c3ccccc3)C2)CC1 (stereo not drawn) [Example 375]	53%	6%
CN(C)C(c1cccc(F)c1)C1CCC(CCNC(=O)COC2CCN(S(=O)(=O)c3ccccc3)C2)CC1 (stereo not drawn) [Example 376]	62%	12%
CN(C)C(c1ccc(F)cc1)C1CCC(CCNC(=O)COCCN(C)S(=O)(=O)c2ccc(Cl)cc2)CC1 (stereo not drawn) [Example 377]	59%	25%
COc1cc(C)c(S(=O)(=O)N(C)CCOCC(=O)NCCC2CCC(C(c3ccc(Cl)cc3)N(C)C)CC2)c(C)c1 (stereo not drawn) [Example 378]	58%	101%
COc1ccc(S(=O)(=O)N(C)CCOCC(=O)NCC2CCC(C(c3ccc(Cl)cc3)N(C)C)CC2)cc1OC (stereo not drawn) [Example 379]	45%	49%
CN(C)C(c1ccc(F)cc1)C1CCC(NC(=O)COC2CCN(S(=O)(=O)c3ccc(F)cc3)C2)CC1 (stereo not drawn) [Example 381]	54%	12%
CN(C)C(c1ccc(F)cc1)C1CCC(NC(=O)COCCN(C)S(=O)(=O)c2c(Cl)cc(Cl)cc2Cl)CC1 (stereo not drawn) [Example 382]	60%	30%
COc1ccc(S(=O)(=O)N2CCCCC2CCOCC(=O)NCCC2CCC(C(c3ccc(Cl)cc3)N(C)C)CC2)cc1 (stereo not drawn) [Example 383]	59%	33%
CN(C)C(c1ccc(Cl)cc1)C1CCC(CNC(=O)COC2CCN(S(=O)(=O)c3ccc(Cl)cc3)C2)CC1 (stereo not drawn) [Example 384]	55%	25%
CN(C)C(c1ccc(F)cc1)C1CCC(CCNC(=O)COCCN(C)S(=O)(=O)c2c(Cl)cc(Cl)cc2Cl)CC1 (stereo not drawn) [Example 386]	63%	20%

Compound	μ (binding on the μ opioid receptor, % inhibition) (human μ opiate receptor)	B1R Ant. r [10 μM] % Inhibition [1]
COc1cc(C)c(S(=O)(=O)N2CCN(CCOCC(=O)NCCC3CCC(C(c4ccc(F)cc4)N(C)C)CC3)CC2)c(C)c1C (stereo not drawn) [Example 387]	53%	−2%
COc1cc(C)c(S(=O)(=O)N(CCOCC(=O)NCC2CCC(C(c3cccc(F)c3)N(C)C)CC2)Cc2ccccc2)c(C)c1 (stereo not drawn) [Example 388]	65%	16%
COc1ccc(S(=O)(=O)N2Cc3ccccc3CC2COCC(=O)NCCC2CCC(C(c3ccc(F)cc3)N(C)C)CC2)cc1 (stereo not drawn) [Example 389]	58%	21%
CN(C)C(c1ccc(F)cc1)C1CCC(CNC(=O)COCCN(C)S(=O)(=O)c2cccc(C(F)(F)F)c2)CC1 (stereo not drawn) [Example 390]	55%	16%
CN(C)C(c1ccc(F)cc1)C1CCC(CNC(=O)COC2CCN(S(=O)(=O)c3ccc(Cl)cc3Cl)C2)CC1 (stereo not drawn) [Example 391]	56%	32%
COc1cc(C)c(S(=O)(=O)N(C)CCOCC(=O)NCCC2CCC(C(c3ccc(F)cc3)N(C)C)CC2)c(C)c1 (stereo not drawn) [Example 392]	57%	103%
Cc1cc(C)c(S(=O)(=O)N2CCC(OCC(=O)NCC3CCC(C(c4ccc(Cl)cc4)N(C)C)CC3)C2)c(C)c1 (stereo not drawn) [Example 393]	55%	39%
CN(C)C(c1ccc(Cl)cc1)C1CCC(CNC(=O)COC2CCN(S(=O)(=O)c3ccc(F)cc3)C2)CC1 (stereo not drawn) [Example 394]	56%	21%
CN(C)C(c1ccc(Cl)cc1)C1CCC(CCNC(=O)COC2CCCN(S(=O)(=O)c3ccccc3)C2)CC1 (stereo not drawn) [Example 395]	54%	15%
CCN(CCOCC(=O)NC1CCC(C(c2ccc(F)cc2)N(C)C)CC1)S(=O)(=O)c1c(C)cc(OC)c(C)c1C (stereo not drawn) [Example 396]	60%	68%
COc1cc(C)c(S(=O)(=O)N2CCC(CCOCC(=O)NCCC3CCC(C(c4cccc(F)c4)N(C)C)CC3)CC2)c(C)c1C (stereo not drawn) [Example 397]	67%	−11%
COc1ccc(S(=O)(=O)N2CCCCC2CCOCC(=O)NCCC2CCC(C(c3ccc(F)cc3)N(C)C)CC2)cc1 (stereo not drawn) [Example 398]	59%	56%
CN(C)C(c1ccc(F)cc1)C1CCC(CNC(=O)COCCN(C)S(=O)(=O)c2ccc(Cl)cc2)CC1 (stereo not drawn) [Example 399]	52%	29%
CN(C)C(c1ccc(F)cc1)C1CCC(CNC(=O)COCCN(C)S(=O)(=O)c2ccc(F)cc2)CC1 (stereo not drawn) [Example 400]	55%	9%
COc1ccc(S(=O)(=O)N(C)CCOCC(=O)NC2CCC(C(c3cccc(F)c3)N(C)C)CC2)cc1OC (stereo not drawn) [Example 401]	49%	1%
CN(C)C(c1ccc(F)cc1)C1CCC(CNC(=O)COC2CCN(S(=O)(=O)c3cccc(C(F)(F)F)c3)C2)CC1 (stereo not drawn) [Example 402]	53%	45%
COc1cc(C)c(S(=O)(=O)N2CCC(OCC(=O)NCC3CCC(C(c4ccc(Cl)cc4)N(C)C)CC3)C2)c(C)c1 (stereo not drawn) [Example 403]	52%	84%
CN(C)C(c1ccc(F)cc1)C1CCC(CNC(=O)COCCN(C)S(=O)(=O)c2c(Cl)cc(Cl)cc2Cl)CC1 (stereo not drawn) [Example 404]	53%	33%
COc1ccc(S(=O)(=O)N2CCCCC2COCC(=O)NCC2CCC(C(c3ccc(F)cc3)N(C)C)CC2)c(OC)c1 (stereo not drawn) [Example 405]	52%	24%
CN(C)C(c1ccc(F)cc1)C1CCC(NC(=O)COCCN(C)S(=O)(=O)c2ccc(Cl)cc2)CC1 (stereo not drawn) [Example 406]	51%	12%
CN(C)C(c1cccc(F)c1)C1CCC(CCNC(=O)COC2CCN(S(=O)(=O)c3ccc(F)cc3)C2)CC1 (stereo not drawn) [Example 407]	54%	10%
